Measured values as given in patent publication US20260306642A1, “STAT DEGRADERS AND USES THEREOF” (Recludix Pharma, Inc., priority 2023, published 2026).

How the values were obtained:
STAT6 = biological target: T1, STAT6 (Homo sapiens, UniProt P42226); test: STAT6 Fluorescence Polarization (FP) Assay; type: binding
T1 construct: Recombinant STAT6 protein (STAT6(W123-T658))
T1 sequence (P42226 123-658): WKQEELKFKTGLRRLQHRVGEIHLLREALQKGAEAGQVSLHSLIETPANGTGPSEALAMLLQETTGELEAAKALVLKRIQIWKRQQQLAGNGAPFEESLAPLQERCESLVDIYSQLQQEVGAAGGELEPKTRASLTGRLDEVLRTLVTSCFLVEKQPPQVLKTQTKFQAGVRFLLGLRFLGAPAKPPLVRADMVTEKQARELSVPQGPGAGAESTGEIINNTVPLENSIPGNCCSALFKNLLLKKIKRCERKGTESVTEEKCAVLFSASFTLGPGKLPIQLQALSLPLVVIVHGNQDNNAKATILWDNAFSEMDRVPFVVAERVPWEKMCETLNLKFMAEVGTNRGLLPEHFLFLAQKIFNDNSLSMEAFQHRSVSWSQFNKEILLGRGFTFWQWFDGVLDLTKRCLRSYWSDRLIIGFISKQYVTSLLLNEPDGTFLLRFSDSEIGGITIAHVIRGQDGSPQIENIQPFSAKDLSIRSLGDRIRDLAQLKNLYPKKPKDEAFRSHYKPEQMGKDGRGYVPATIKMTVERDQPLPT
How it was run: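 STAT6(W123-T658) at 250 nM with 2 nM 5-FAM-ApYKPFQDLI-NH2 probe in HEPES pH 7.4, 50 mM NaCl, EDTA, Tween 20, DTT, 1% DMSO. FP read after 45 min at room temperature; IC50 from nonlinear fit of mP versus log concentration.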

pSTAT6 = biological target: T2, pSTAT6 (Homo sapiens, UniProt P42226); test: MSD-pSTAT-PBMC Assay (pSTAT6, IL-4 stimulated); type: cell-based; details: compound 3 hrs, then 1 ng/mL IL-4 10 min, pY641-STAT6, read-out: pSTAT6 IC50
T2 sequence (P42226 1-847): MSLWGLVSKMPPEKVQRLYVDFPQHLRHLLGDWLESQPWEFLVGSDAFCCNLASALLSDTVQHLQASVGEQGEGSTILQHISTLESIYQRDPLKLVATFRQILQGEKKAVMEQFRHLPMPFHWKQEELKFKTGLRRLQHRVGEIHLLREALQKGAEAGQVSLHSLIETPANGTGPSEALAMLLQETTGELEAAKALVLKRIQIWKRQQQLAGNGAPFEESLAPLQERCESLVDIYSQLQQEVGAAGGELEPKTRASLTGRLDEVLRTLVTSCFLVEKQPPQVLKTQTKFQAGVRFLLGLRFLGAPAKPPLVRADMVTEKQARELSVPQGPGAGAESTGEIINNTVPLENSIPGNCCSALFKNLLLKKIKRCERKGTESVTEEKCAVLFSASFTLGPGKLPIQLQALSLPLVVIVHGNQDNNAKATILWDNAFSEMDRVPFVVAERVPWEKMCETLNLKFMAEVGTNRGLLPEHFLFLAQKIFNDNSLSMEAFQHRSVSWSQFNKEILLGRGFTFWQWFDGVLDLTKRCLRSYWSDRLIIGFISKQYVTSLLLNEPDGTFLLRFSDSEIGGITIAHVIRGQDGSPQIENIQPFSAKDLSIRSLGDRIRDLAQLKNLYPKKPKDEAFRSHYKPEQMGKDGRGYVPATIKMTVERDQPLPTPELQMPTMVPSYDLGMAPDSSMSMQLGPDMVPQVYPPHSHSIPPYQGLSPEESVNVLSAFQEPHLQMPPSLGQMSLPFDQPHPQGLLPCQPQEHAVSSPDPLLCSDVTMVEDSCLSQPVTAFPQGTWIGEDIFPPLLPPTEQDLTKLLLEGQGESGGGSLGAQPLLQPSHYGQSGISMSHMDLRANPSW
Excerpt: Cryopreserved Peripheral Blood Mononuclear Cells (PBMC) are from AllCells. Recombinant Human IL-4 and IL-6 are from Peprotech. Mouse monoclonal anti-STAT3 antibody, rabbit monoclonal anti-pY705-STAT3 antibody, rabbit monoclonal Anti-pY641-STAT6 antibody, and lysis buffer are from Cell Signaling Technology (CST). Mouse monoclonal anti-STAT6 antibody is from BioLegend. Assay plates, blocker, and anti-rabbit secondary antibody are from Meso Scale Discovery (MSD).
Cryopreserved PBMCs were thawed out and allowed to recover overnight in IMDM+10% heat-inactivated FBS prior to plating 50,000 (STAT3) or 25,000 (STAT6) cells per well in 96-well U-bottom tissue culture plates. Cells were treated with compound for 3 hrs, then stimulated with 10 ng/mL IL-6 (STAT3) or 1 ng/mL IL-4 (STAT6) for 10 min. Cells were then spun down and washed with ice-cold PBS prior to lysing the cell pellet with 1× lysis buffer (CST) with 1× HALT protease and phosphatase inhibitor cocktail (Thermo). Lysates were transferred to and incubated overnight at 4° C. with shaking in QuickPlex 96-well high bind assay plates (MSD) pre-coated overnight with 30 μL per well of […] mouse monoclonal anti-STAT3 antibody (STAT3) or 2 μg/mL mouse monoclonal anti-STAT6 antibody (STAT6) in 1× PBS, and pre-blocked for 1 hour with 3% Blocker-A (MSD). Captured protein in the assay plates were then washed and probed with 25 μL per well of […] rabbit monoclonal anti-pY705-STAT3 antibody (STAT3) or […] rabbit monoclonal Anti-pY641-STAT6 antibody (STAT6) in 1% Blocker-A for 1 hour at room temperature with shaking, then washed and probed with 25 ul per well of 1 ug/ml Sulfo-TAG Labeled Goat Anti-Rabbit Antibody (MSD) in 1% Blocker-A for 1 hour at room temperature with shaking. Assay plates were then washed and 150 μL of 1× Read Buffer-T (MSD) was added to each well prior to reading on an SQ120 MSD Plate Reader. Assay signal from each sample was subtracted by the signal from unstimulated control wells and normalized to DMSO control wells. IC50 values were calculated using Graph Pad Prism Dose-Response Nonlinear Regression with variable slope. For both pSTAT3 and pSTAT6 A=≤100 nM; B=>100-1000 nM; C=>1000-3000 nM; and D=>3 μM.

STAT3 = biological target: T3, STAT3 (Homo sapiens, UniProt P40763); test: STAT3 Fluorescence Polarization (FP) Assay; type: binding
T3 construct: Recombinant STAT3 protein (STAT3(G127-I722))
How it was run: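 Recombinant STAT3 (G127–I722, 25 nM) was mixed with 2 nM 5-FAM-GpYLPQTV-NH2 probe in HEPES pH 7.4 buffer with 1% DMSO and serially diluted compound. Fluorescence polarization was read after 45 min at room temperature. IC50 came from nonlinear regression of mP versus log concentration and was binned A (≤100 nM), B (>100–1000 nM), C (>1–10 μM) or D (>10 μM).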

T3 sequence (P40763 127-722): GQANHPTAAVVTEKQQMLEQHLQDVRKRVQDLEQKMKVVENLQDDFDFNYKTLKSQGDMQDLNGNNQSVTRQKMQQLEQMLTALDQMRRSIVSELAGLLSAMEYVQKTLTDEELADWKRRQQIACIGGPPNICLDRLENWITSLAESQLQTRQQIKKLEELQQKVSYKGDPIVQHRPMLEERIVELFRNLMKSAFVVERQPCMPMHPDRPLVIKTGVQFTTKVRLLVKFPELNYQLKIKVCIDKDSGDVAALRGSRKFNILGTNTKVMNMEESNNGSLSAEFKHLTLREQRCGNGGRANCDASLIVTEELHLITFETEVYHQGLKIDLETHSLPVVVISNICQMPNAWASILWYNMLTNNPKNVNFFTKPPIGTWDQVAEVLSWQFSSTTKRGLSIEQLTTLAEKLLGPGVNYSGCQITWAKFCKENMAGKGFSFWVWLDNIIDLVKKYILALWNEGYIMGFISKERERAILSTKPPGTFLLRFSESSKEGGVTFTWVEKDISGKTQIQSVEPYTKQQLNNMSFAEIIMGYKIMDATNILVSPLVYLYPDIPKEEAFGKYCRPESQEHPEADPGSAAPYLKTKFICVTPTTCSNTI

SMILES: N#CC1CN(C(=O)C2CCC3CCCCC(NC(=O)c4cc5cc(C(F)(F)P(=O)(O)O)ccc5s4)C(=O)N32)CC1c1cccc(N2CCN(c3ccc4c(c3)[nH]c(=O)n4C3CCC(=O)NC3=O)CC2)c1 [Compound 22, ((2-(((3S,6S,10aS)-3-((rel-3S,4R)-3-cyano-4-(3-(4-(1-(2,6-dioxopiperidin-3-yl)-2-oxo-2,3-dihydro-1H-benzo[d]imidazol-5-yl)piperazin-1-yl)phenyl)pyrrolidine-1-carbonyl)-5-oxodecahydropyrrolo[1,2-a]azocin-6-yl)carbamoyl)benzo[b]thiophen-5-yl)difluoromethyl)phosphonic acid]
- IC50 (STAT6): < 300 nM
- IC50 (pSTAT6): 1000 to 3000 nM
- IC50 (STAT3): 100 to 1000 nM

SMILES: N#CC1CN(C(=O)C2CCC3CCCCC(NC(=O)c4cc5cc(C(F)(F)P(=O)(O)O)ccc5s4)C(=O)N32)CC1c1cccc(OCCOCCOc2cccc3c2CN(C2CCC(=O)NC2=O)C3=O)c1 [Compound 16, ((2-(((3S,6S,10aS)-3-((rel-3S,4R)-3-cyano-4-(3-(2-(2-((2-(2,6-dioxopiperidin-3-yl)-1-oxoisoindolin-4-yl)oxy)ethoxy)ethoxy)phenyl)pyrrolidine-1-carbonyl)-5-oxodecahydropyrrolo[1,2-a]azocin-6-yl)carbamoyl)benzo[b]thiophen-5-yl)difluoromethyl)phosphonic acid]
- IC50 (STAT6): 300 to 3000 nM
- IC50 (pSTAT6): 1000 to 3000 nM
- IC50 (STAT3): 100 to 1000 nM

SMILES: O=C1CCC(c2ccc(OCCCCCn3ccc([C@@H]4CN(C(=O)[C@@H]5CC[C@@H]6CCCC[C@H](NC(=O)c7cc8cc(C(F)(F)P(=O)(O)O)ccc8s7)C(=O)N65)C5(CC5)C4)cc3=O)cc2)C(=O)N1 (stereo partly drawn) [Compound 17, ((2-(((3S,6S,10aS)-3-((6R)-6-(1-(5-(4-(2,6-dioxopiperidin-3-yl)phenoxy)pentyl)-2-oxo-1,2-dihydropyridin-4-yl)-4-azaspiro[2.4]heptane-4-carbonyl)-5-oxodecahydropyrrolo[1,2-a]azocin-6-yl)carbamoyl)benzo[b]thiophen-5-yl)difluoromethyl)phosphonic acid]
- IC50 (STAT6): < 300 nM
- IC50 (pSTAT6): 1000 to 3000 nM
- IC50 (STAT3): 1000 to 10000 nM

SMILES: O=C1CCC(N2Cc3c(C#CCCCCCCn4ccc([C@@H]5CN(C(=O)[C@@H]6CC[C@@H]7CCCC[C@H](NC(=O)c8cc9cc(C(F)(F)P(=O)(O)O)ccc9s8)C(=O)N76)C6(CC6)C5)cc4=O)cccc3C2=O)C(=O)N1 (stereo partly drawn) [Compound 5, ((2-(((3S,6S,10aS)-3-((6R)-6-(1-(8-(2-(2,6-dioxopiperidin-3-yl)-1-oxoisoindolin-4-yl)oct-7-yn-1-yl)-2-oxo-1,2-dihydropyridin-4-yl)-4-azaspiro[2.4]heptane-4-carbonyl)-5 oxodecahydropyrrolo[1,2-a]azocin-6-yl)carbamoyl)benzo[b]thiophen-5-yl)difluoromethyl)phosphonic acid]
- IC50 (STAT6): 300 to 3000 nM
- IC50 (pSTAT6): 100 to 1000 nM
- IC50 (STAT3): 1000 to 10000 nM

SMILES: O=C1CCC(n2c(=O)[nH]c3cc(N4CCC(n5ccc([C@@H]6CN(C(=O)[C@@H]7CC[C@@H]8CCCC[C@H](NC(=O)c9cc%10cc(C(F)(F)P(=O)(O)O)ccc%10s9)C(=O)N87)C7(CC7)C6)cc5=O)CC4)ccc32)C(=O)N1 (stereo partly drawn) [Compound 24, ((2-(((3S,6S,10aS)-3-((6R)-6-(1-(1-(1-(2,6-dioxopiperidin-3-yl)-2-oxo-2,3-dihydro-1H-benzo[d]imidazol-5-yl)piperidin-4-yl)-2-oxo-1,2-dihydropyridin-4-yl)-4-azaspiro[2.4]heptane-4-carbonyl)-5-oxodecahydropyrrolo[1,2-a]azocin-6-yl)carbamoyl)benzo[b]thiophen-5-yl)difluoromethyl)phosphonic acid]
- IC50 (STAT6): 300 to 3000 nM
- IC50 (pSTAT6): > 3000 nM
- IC50 (STAT3): 1000 to 10000 nM

SMILES: N#CC1CN(C(=O)C2CCC3CCCCC(NC(=O)c4cc5cc(C(F)(F)P(=O)(O)O)ccc5s4)C(=O)N32)CC1c1cccc(OCCCCCC#Cc2cccc3c2CN(C2CCC(=O)NC2=O)C3=O)c1 [Compound 13, ((2-(((3S,6S,10aS)-3-((rel-3S,4R)-3-cyano-4-(3-((7-(2-(2,6-dioxopiperidin-3-yl)-1-oxoisoindolin-4-yl)hept-6-yn-1-yl)oxy)phenyl)pyrrolidine-1-carbonyl)-5-oxodecahydropyrrolo[1,2-a]azocin-6-yl)carbamoyl)benzo[b]thiophen-5-yl)difluoromethyl)phosphonic acid]
- IC50 (STAT6): < 300 nM
- IC50 (pSTAT6): > 3000 nM
- IC50 (STAT3): 100 to 1000 nM

SMILES: N#C[C@@H]1CN(C(=O)[C@@H]2CC[C@@H]3CCCC[C@H](NC(=O)c4cc5cc(C(F)(F)P(=O)(O)O)ccc5s4)C(=O)N32)C[C@H]1c1cccc(OCCCCOc2ccc(C3CCC(=O)NC3=O)cc2)c1 (mixture of isomers) [Compound 3, trans-((2-(((3S,6S,10aS)-3-(3-cyano-4-(3-(4-(4-(2,6-dioxopiperidin-3-yl)phenoxy)butoxy)phenyl)pyrrolidine-1-carbonyl)-5-oxodecahydropyrrolo[1,2-a]azocin-6-yl)carbamoyl)benzo[b]thiophen-5-yl)difluoromethyl)phosphonic acid]
- IC50 (STAT6): < 300 nM
- IC50 (pSTAT6): 1000 to 3000 nM
- IC50 (STAT3): 100 to 1000 nM
